Source: US11407783B2, “Triptolide derivative and preparation method therefor and use thereof” (priority 2018, dated 2022)
Like-named read-outs stand apart in the source and are kept apart here.

Columns and labels:
[1] = system: AsPC-1 (human pancreatic cancer cell); assay: In vitro antitumor activity, CellTiter-Glo cell viability, 48 h; type: cell-based; conditions: read-out: Relative IC50 (μM) AsPC-1
Procedure: (§1) Tumor cells included AsPC-1 (human pancreatic cancer cell), PC-3 (human prostate cancer cell), and SK-OV-3 (human ovarian cancer cell).
(§2) Triptolide was used as a positive control; the working concentrations of the test drug were 1 μM, 0.33 μM, 0.11 μM, […], 0.012 μM, 0.004 μM, 1.4 nM, and 0.46 nM. After the tumor cells were revived, they were resuspended in the corresponding complete medium, placed in 5% CO2, and cultured at 37° C. The tumor cells at the logarithmic growth stage were suspended in the corresponding complete medium to adjust the cell concentration. 90 μL of cell suspension was added into each well. The cells were incubated at 37° C. in 5% CO2 overnight. Each concentration of the test drug was added and the cells were further cultured for 48 hours. Finally. Promega CellTiter-Glo Luminescent Cell Viability Assay Kit was used for detection.

[2] = system: SK-OV-3 (human ovarian cancer cell); assay: as above; type: cell-based; conditions: read-out: Relative IC50 (μM) SK-OV-3
Procedure: as §1, §2

[3] = system: PC-3 (human prostate cancer cell); assay: as above; type: cell-based; conditions: read-out: Relative IC50 (μM) PC-3
Procedure: as §1, §2

[4] = system: mouse T lymphocytes induced by ConA; assay: In vitro immunosuppressive activity, spleen lymphocyte proliferation (3H-thymidine), ConA-induced; type: cell-based, BALB/c mice; conditions: read-out: IC50 (μM) mouse T lymphocytes induced by ConA
Procedure: (§3) Preparation of Mouse Spleen Lymphocyte
(§4) BALB/c mice were sacrificed by spinal dislocation, and their spleen was aseptically taken out. A single cell suspension was prepared and adjusted to the required concentration.
(§5) A suspension of 4×10^6 cells/ml spleen lymphocytes was routinely prepared and 100 μL of cells was added into each well of a 96-well plate. 50 μL test sample in different concentrations was added and ConA (final concentration 5 μg/mL) was added to induce T lymphocyte activation and proliferation, or LPS (final concentration 10 μg/mL) (50 μL) was added to induce B lymphocyte activation and proliferation. The corresponding positive control and non-stimulating background control were set. The cells were cultured in 37° C., 5% CO2 incubator for 48 h. 0.25 μCi ^3H-thymidine was introduced and the cultivation was completed after 8 h. At the end of the cultivation, the culture plate was frozen at −20° C. in a freezer until measurement. The cells were collected on a glass fiber membrane with a cell harvester and then scintillation solution was added. The amount of ^3H-thymine nucleotides incorporated into the cells' DNA was read on a Beta counter. The cell proliferation was represented by the cpm value.

[5] = system: mouse B lymphocytes induced by LPS; assay: In vitro immunosuppressive activity, spleen lymphocyte proliferation (3H-thymidine), LPS-induced; type: cell-based, BALB/c mice; conditions: read-out: IC50 (μM) mouse B lymphocytes induced by LPS
Procedure: as §3, §4, §5

[6] = Body weight, mortality and toxicity in AsPC-1 tumor-bearing nude mice; type: in vivo, male nude mice; conditions: emulsions
Procedure: Human pancreatic cancer cell AsPC-1 was subcutaneously inoculated on the right abdominal side of male nude mice. Tumor-bearing mice were randomly divided into 5 groups: negative control group (Control, n=8, blank emulsion, i.p./i.v., qd); Triptolide group (Triptolide, n=8, 0.25 mg/kg, i.v., qd); positive control group (Gemcitabine, n=8, 50 mg/kg, i.p., tiw); CK21S-005 emulsion group (CK21S-005 emulsion, n=8, 5 mg/kg, i.p./i.v., qd); and CK21S-005 emulsion group (CK21S-005 emulsion, n=8, 2.5 mg/kg, i.p./i.v., qd). Mice were administered in groups until the end of the experiment. The changes in tumor size and tumor-bearing mouse weight over time were monitored during the 2-week administration period, and tumors were weighed at the end of the experiment to comprehensively evaluate the inhibitory effect of the drug CK21S-005 on tumor growth.
The preparation method of the emulsion was as follows. A prescribed amount of injection oil was weighed and heated to 70-90° C. A prescribed amount of raw material was weighed, dispersed in the oil phase and completely dissolved under shear-stirring to form an oil phase. A prescribed amount of injection water was weighed and heated to 70° C. A prescribed amount of phospholipid, co-emulsifier, glycerin, etc. were added and dispersed under shear to form an aqueous phase. […]

[7] = ASPC1, AsPC-1, 48 hours, CellTiter-Glo
[8] = SK-OV-3, 48 hours, CellTiter-Glo
[9] = ConA 5 μg/mL, 48 h, 3H-thymidine
[10] = LPS 10 μg/mL, 48 h, 3H-thymidine

Structure (SMILES)	IC50 [1, 7]	IC50 [2, 8]	IC50 ([3]; PC-3, 48 hours, CellTiter-Glo)	IC50 [4, 9]	IC50 [5, 10]	IC50 ([1]; ASPC1, 48 h)	IC50 ([2]; SK-OV-3, 48 h)	IC50 ([3]; 48 h)	IC50 [4]	IC50 [5]	Safety compared with triptolide [6]
CC(C)[C@]12O[C@H]1[C@@H]1O[C@]13[C@]1(O[C@H]1C[C@H]1C4=C(CC[C@@]13C)C(=O)O/C4=C(/OC(=O)c1ccc(C(F)(F)F)cc1)c1ccc(C(F)(F)F)cc1)[C@@H]2O [CK21S-003]	0.014 µM	0.028 µM	0.018 µM	0.006 µM	0.004 µM						
CC(C)[C@]12O[C@H]1[C@@H]1O[C@]13[C@]1(O[C@H]1C[C@H]1C4=C(CC[C@@]13C)C(=O)OC4)[C@@H]2O [Triptolide, triptolide]	0.014 µM	0.016 µM	0.014 µM	0.005 µM	0.004 µM						
CC(C)[C@]12O[C@H]1[C@@H]1O[C@]13[C@]1(O[C@H]1C[C@H]1C4=C(CC[C@@]13C)C(=O)O/C4=C(/OC(=O)C1CCCCC1)c1ccccc1)[C@@H]2OC(=O)OC(C)(C)C [CK21S-006-b]						0.036 µM	0.045 µM	0.034 µM	0.016 µM	0.015 µM	
CC(C)[C@]12O[C@H]1[C@@H]1O[C@]13[C@]1(O[C@H]1C[C@H]1C4=C(CC[C@@]13C)C(=O)O/C4=C(/OC(=O)c1ccccc1)c1ccccc1)[C@@H]2OC(=O)OC(C)(C)C [CK21S-005-b]	0.042 µM	0.04 µM	0.035 µM	0.011 µM	0.009 µM						
CC(C)[C@]12O[C@H]1[C@@H]1O[C@]13[C@]1(O[C@H]1C[C@H]1C4=C(CC[C@@]13C)C(=O)O/C4=C(/OC(=O)c1ccco1)c1ccco1)[C@@H]2OC(=O)OC(C)(C)C [CK21S-004-b]						0.096 µM	0.129 µM	0.045 µM	0.03 µM	0.025 µM	
CC(C)[C@]12O[C@H]1[C@@H]1O[C@]13[C@]1(O[C@H]1C[C@H]1C4=C(CC[C@@]13C)C(=O)O/C4=C(/OC(=O)c1ccccc1)c1ccccc1)[C@@H]2O [CK21S-005]						0.04 µM	0.041 µM	0.03 µM	0.012 µM	0.01 µM	better than that of triptolide
CC(C)[C@]12O[C@H]1[C@@H]1O[C@]13[C@]1(O[C@H]1C[C@H]1C4=C(CC[C@@]13C)C(=O)O/C4=C(/OC(=O)c1ccco1)c1ccccc1)[C@@H]2O [CK21S-001]	0.028 µM	0.042 µM	0.022 µM	0.008 µM	0.006 µM						
COc1ccc(C(=O)O/C(=C2/OC(=O)C3=C2[C@@H]2C[C@@H]4O[C@@]45[C@H](O)[C@@]4(C(C)C)O[C@H]4[C@@H]4O[C@@]45[C@@]2(C)CC3)c2ccc(OC)cc2)cc1 [CK21S-002]	0.071 µM	0.07 µM	0.056 µM	0.021 µM	0.02 µM						
CC(C)[C@]12O[C@H]1[C@@H]1O[C@]13[C@]1(O[C@H]1C[C@H]1C4=C(CC[C@@]13C)C(=O)O/C4=C(/OC(=O)c1ccc(C(F)(F)F)cc1)c1ccc(C(F)(F)F)cc1)[C@@H]2OC(=O)OC(C)(C)C [CK21S-003-b]						0.02 µM	0.029 µM	0.021 µM	0.006 µM	0.005 µM	
COc1ccc(C(=O)O/C(=C2/OC(=O)C3=C2[C@@H]2C[C@@H]4O[C@@]45[C@H](OC(=O)OC(C)(C)C)[C@@]4(C(C)C)O[C@H]4[C@@H]4O[C@@]45[C@@]2(C)CC3)c2ccc(OC)cc2)cc1 [CK21S-002-b]						0.042 µM	0.057 µM	0.042 µM	0.012 µM	0.01 µM	
CC(C)[C@]12O[C@H]1[C@@H]1O[C@]13[C@]1(O[C@H]1C[C@H]1C4=C(CC[C@@]13C)C(=O)O/C4=C(/OC(=O)c1ccccc1)c1ccccc1)[C@@H]2OCOP(=O)(O)O [CK21S-009]	0.03 µM	0.032 µM	0.027 µM	0.008 µM	0.008 µM						
CC(C)[C@]12O[C@H]1[C@@H]1O[C@@]13[C@@]1(C)CCC4=C(/C(=C(\OC(=O)c5ccccc5)c5ccccc5)OC4=O)[C@@H]1C[C@@H]1O[C@@]13C2=O [CK21S-007]	0.049 µM	0.05 µM	0.043 µM	0.015 µM	0.017 µM						
CC(C)[C@]12O[C@H]1[C@@H]1O[C@]13[C@]1(O[C@H]1C[C@H]1C4=C(CC[C@@]13C)C(=O)O/C4=C(/OC(=O)c1ccco1)c1ccco1)[C@@H]2O [CK21S-004]	0.038 µM	0.118 µM	0.023 µM	0.012 µM	0.009 µM						
CC(C)[C@]12O[C@H]1[C@@H]1O[C@@]13[C@@]1(C)CCC4=C(/C(=C(\OC(=O)c5ccccc5)c5ccccc5)OC4=O)[C@@H]1C[C@@H]1O[C@@]13C2F (stereo partly drawn) [CK21S-008]	0.035 µM	0.038 µM	0.03 µM	0.01 µM	0.009 µM						
CC(C)[C@]12O[C@H]1[C@@H]1O[C@]13[C@]1(O[C@H]1C[C@H]1C4=C(CC[C@@]13C)C(=O)O/C4=C(/OC(=O)c1ccco1)c1ccccc1)[C@@H]2OC(=O)OC(C)(C)C [CK21S-001-b]						0.03 µM	0.048 µM	0.029 µM	0.011 µM	0.01 µM	
CC(C)[C@]12O[C@H]1[C@@H]1O[C@]13[C@]1(O[C@H]1C[C@H]1C4=C(CC[C@@]13C)C(=O)O/C4=C(/OC(=O)C1CCCCC1)c1ccccc1)[C@@H]2O [CK21S-006]	0.035 µM	0.041 µM	0.031 µM	0.01 µM	0.008 µM						
